According to patent publication US20060039887A1, “Cosmetic or pharmaceutical composition for skin care” (Infinity2 Health Sciences, Inc., priority 2004, published 2006):
Each block holds one molecule with its values, some of them ahead of it.

Legend:
[1] = Stability of Cu-ATP solution, Hunter Lab L*a*b* color readings; format: physicochemical; design: key to color reading "L": L* lightness: 100 = white to 0 = black; key to color reading "a": a*: negative = greener, positive = redder; key to color reading "b": b*: negative = bluer, positive = yellower; conditions: full light, ambient room temperature
Excerpt: It should be noted that, where relevant, composition ingredients and the like are provided in weight percentages. Further, where applicable, color measurements were done on a Hunter Lab color meter. This color meter measures color on a scale defined as L*a*b* scale. The term “L” is from 100 to 0, representing white and black colors (lightness and darkness), respectively. A (−) value of “a” indicates a more green color. A (+) value of “a” indicates a more red color. A (−) value of “b” indicates a more blue color. A (+) value of “b” indicates a more yellow color. Various numeric values of “a” and “b” indicate degree of respective colors. Mixed colors are thus indicated by a mixed value of L*a*b* as will be noted in various examples below. The materials used had the following properties. Adenosine triphosphate disodium hydrate (molecular weight 551 Da), glutathione (molecular weight 307 Da), copper gluconate (molecular weight 453 Da, Cu=14%), copper amino acid chelate (copper 12%), fructose-1,6-diphosphate dicalcium (molecular weight 416 Da), zinc gluconate (molecular weight 455 Da, Zn=1 4%), manganese gluconate (molecular weight 445 Da, Mn=12%). The analysis of trace metals quoted in ppm in various examples, as noted below, are within +-10%.
The solution “C” obtained in Example 2 was stored in a beaker with a plastic film wrapped over it. The solution was stored in full light (fluorescent lamps) under ambient room temperature conditions. The color readings were measured periodically, and any visually observed discolorations, or precipitate formations, if any, were also recorded, as noted below.

[2] = pH of 1 wt % solution in water; format: physicochemical; conditions: 1 wt % (1%) water solution
[3] = stability of water solution; format: physicochemical
[4] = from water solutions

- color reading "L" ([1]; 1 Week): 51.35
- color reading "a" ([1]; 1 Week): −35.38
- color reading "b" ([1]; 1 Week): −5.16
- color reading "L" ([1]; 4 Weeks): 50.54
- color reading "a" ([1]; 4 Weeks): −36.08
- color reading "b" ([1]; 4 Weeks): −5.56
- color reading "L" ([1]; Initial): 53.52
- color reading "a" ([1]; Initial): −33.58
- color reading "b" ([1]; Initial): −4.19
Molecule: Copper ATP [Cu-ATP Solution]

Molecule: Nc1ncnc2c1ncn2[C@@H]1O[C@H](COP(=O)(O)OP(=O)(O)OP(=O)(O)O)[C@@H](O)[C@H]1O [ATP, adenosine triphosphate]
- pH of 1 wt % solution in water [2]: 2.0

- pH of 1 wt % solution in water [2]: 2.6
- stability of water solution [3]: poor
Molecule: O=C1O[C@H]([C@@H](O)CO)C(O)=C1O [ascorbic acid]

- pH of 1 wt % solution in water [2]: 3.7
- stability of water solution [3]: good
- absorption into skin [4]: rapidly absorbed
Molecule: NC(=O)c1cccnc1.O=C1O[C@H]([C@@H](O)CO)C(O)=C1O [Niacinamide ascorbate]

Molecule: O=C(O)[C@H](O)[C@@H](O)[C@H](O)[C@H](O)CO [gluconic acid]
- pH of 1 wt % solution in water [2]: 2.5

- pH of 1 wt % solution in water [2]: 6.3
- stability of water solution [3]: good
Molecule: NC(=O)c1cccnc1 [niacinamide]
